Some results are limits rather than exact numbers.

The nature of the data set: Seven days indicative acute toxicity after oral administration. Conditions: mouse, in vivo, mice. How it is done:
The tested compounds were administered per os (p.o.) 15 minutes before the administration of the antigen: at least 6 rats were used for each dose. Seven days indicative acute toxicity after oral administration was assessed for the compounds of the invention, for example, a LD50 >800 mg/kg in mice was obtained for all the following compounds of the invention: […]
In turn, `COc1ccccc1C=C1Oc2ccc(C(=O)O)cc2C1=O` [5-carboxy-2-(2'-methoxy-benzylidene)-2H-benzofuran-3-one] displayed an LD50 at 168 h of over 800 mg/kg.

For `COc1ccc(OC(C)C)c(C=C2Oc3ccc(C(=O)O)cc3C2=O)c1` [K 13432, 5-carboxy-2-(2'-isopropoxy-5'-methoxy-benzylidene)-2H-benzofuran-3-one], the LD50 at 168 h is over 800 mg/kg.

In the case of `O=C(O)c1ccc2c(c1)C(=O)C(=Cc1cccs1)O2` [5-carboxy-2-(2'-thenylidene)-2H-benzofuran-3-one], the LD50 at 168 h was over 800 mg/kg.

As for `COc1ccc(C=C2Oc3ccc(C(=O)O)cc3C2=O)cc1` [5-carboxy-2-(4'-methoxy-benzylidene)-2H-benzofuran-3-one], the LD50 at 168 h was over 800 mg/kg.

With `COc1ccc(C=C2Oc3ccc(C(=O)O)cc3C2=O)c(OC)c1OC` [K 13422, 5-carboxy-2-(2',3',4'-trimethoxy-benzylidene)-2H-benzofuran-3-one], the LD50 at 168 h was over 800 mg/kg.

For `CC(C)Oc1cccc(C=C2Oc3ccc(C(=O)O)cc3C2=O)c1` [5-carboxy-2-(3'-isopropoxy-benzylidene)-2H-benzofuran-3-one], the LD50 at 168 h is over 800 mg/kg.

Molecule `COc1ccc(C=C2Oc3ccc(C(=O)O)cc3C2=O)cc1OC` [5-carboxy-2-(3',4'-dimethoxy-benzylidene)-2H-benzofuran-3-one] returned an LD50 at 168 h of over 800 mg/kg.

The molecule `COc1cccc(C=C2Oc3ccc(C(=O)O)cc3C2=O)c1` [5-carboxy-2-(3'-methoxy-benzylidene)-2H-benzofuran-3-one] gave a median lethal dose (LD50) at 168 h of over 800 mg/kg.

Molecule `CC(C)Oc1ccccc1C=C1Oc2ccc(C(=O)O)cc2C1=O` [5-carboxy-2-(2'-isopropoxy-benzylidene)-2H-benzofuran-3-one] displayed an LD50 at 168 h of over 800 mg/kg.

Take `COc1ccc(OC)c(C=C2Oc3ccc(C(=O)O)cc3C2=O)c1` [K 13383, 5-carboxy-2-(2',5'-dimethoxy-benzylidene)-2H-benzofuran-3-one]: the LD50 at 168 h was over 800 mg/kg.

The molecule `COc1cc(C=C2Oc3ccc(C(=O)O)cc3C2=O)cc(OC)c1OC` [K 13364, 5-carboxy-2-(3',4',5'-trimethoxy-benzylidene)-2H-benzofuran-3-one] displayed an LD50 at 168 h of over 800 mg/kg.

The LD50 is the dose expected to kill half of the subjects tested. A low value points to greater toxicity.

These data come from patent US4670457A, “2H-benzofuran-3-one-derivatives and process for their preparation” (Farmitalia Carlo Erba, S.p.A., priority 1978, dated 1987).
